Measured values from patent USRE38825E1, “Glyphosate tolerant plants” (Monsanto Technology LLC, priority 1990, dated 2005).
Read-outs that look alike come from different tables or passages of the source.

What was measured:
most plant species [1] = details: Franz, 1985; cited from earlier work
most plant species [2] = details: in vivo; cited from earlier work
[3] = target: LBAA glyphosate oxidoreductase variant v.247 (v1v2v3: GLY84, ARG153, ARG334), SEQ ID NO:18 (Ochrobactrum sp. G-1, UniProt D2KI28, H334R/K153R/S2A/S84G); test: Kinetic analysis of glyphosate oxidoreductase variant v.247; assay type: biochemical, bacterial isolate LBAA (Pseudomonas strain LBAA); details: v.247
Protocol: The mutagenesis procedure used was that of Mn++-poisoned PCR and the template was a linearized glyphosate oxidoreductase gene plasmid containing the synthetic glyphosate oxidoreductase gene (SEQ ID NO:8). The oligonucleotide primers used were homologous to regions in the vector and flanking the glyphosate oxidoreductase gene. The PCR conditions employed were as follows: 1 minute at 94° C., 2 minutes at 55° C., and 3 minutes at 72° C. and with 35 cycles. A 5:1 ratio of dCTP+dGTP+TTP to dATP was used. The reactions contained MnCl2 at 125, 250, 375, or 500 μM. After the reaction, the amplified product was recloned into a vector containing a weak E. coli promoter. This vector was a pBR327 derivative containing the araBAD promoter and suitable cloning sites. One hundred colonies from this cloning step were then screened in E. coli GB993 for improved glyphosate tolerance and utilization phenotypes in media composed of MOPS minimal medium with glyphosate and Pi or with glyphosate alone, respectively. Growth rates were determined by measuring A550 over a 96 hour period. […] The glyphosate oxidoreductase gene was recloned into the expression vector portion and this phenotype verified. All kinetic analysis was performed on crude E. coli lysates. Putative glyphosate oxidoreductase variant proteins were overexpressed after subcloning the NcoI/HindIII variant glyphosate oxidoreductase gene into PrecA-gene10L expression vector. For overexpression in PrecA-gene10L constructs, GB993 cells containing the vector were induced at a Klett=110-120 in M9 minimal medium with 50 μg/ml nalidixic acid and allowed to grow for 2.5 hours at 37° C. with vigorous shaking. Cells were harvested by centrifugation at 4000 g, 5 minutes at 4° C., and resuspend in 100 mM Tris-HCl, pH 7.1, 1 mM EDTA, 35 mM KCl, 20% glycerol, and 1 mM benzamidine at 3 ml/g cell pellet. Lysates were prepared by breaking the cells in a French press, twice, at 1000 psi. Insoluble debris was removed by centrifugation at 12000 g, 15 minutes at 4° C., and the supernatant was de-salted by passing over a PD-10 column (Sephadex G-25, Pharmacia). The void volume fraction was used as the source of enzyme for kinetic analysis. Protein concentrations were determined using the Bio-Rad protein dye-binding assay. Time and enzyme concentration courses were performed to determine linear ranges. […] Ten minutes was determined to be the optimal time for the enzyme assay using 10 μg lysate. After 10 minutes at 30° C. with shaking, 0.25 ml dinitrophenylhydrazine (DNPH) reagent (0.5 mg/ml in 0.5M HCl) was added and the reaction was allowed to proceed for an additional 5 minutes at 30° C. with shaking. A 1.5M NaOH solution (400 μl) was then added to the assay mix, and the reaction was continued for 5 minutes at 30° C. with shaking. Enzyme activity was determined from the amount of glyoxylate-DNPH adduct formed by measuring A520 against a standard of glyoxylate. Enzyme assays are performed in duplicate on at least two different single colony isolates of a putative glyphosate oxidoreductase variant. To determine Km and Vmax, enzyme assays were performed over a (0.2-2.0)×Km range of glyphosate concentrations. The Km and Vmax were determined from Lineweaver Burk, Eadie-Hofstee and hyperbolic kinetic plots. Vmax was estimated after determining the amount of immunoreactive glyphosate oxidoreductase protein in lysates by immunoblot analysis as described below. Immunoblot analysis was performed following SDS-PAGE and transfer of protein from the gel to nitrocellulose at 500 mA in a Hoeffer transfer apparatus in 25 mM Tris-HCl, 192 mM glycine containing 0.1% SDS and 25% methanol for 1-2 hours. After transfer, the nitrocellulose was incubated with 50 mM Tris-HCl, pH7.5, 0.9% NaCl, 0.01% Tween 20, 0.02% NaN3 containing 2% bovine serum albumin at room temperature with shaking for at least 30 minutes. […]

[4] = target: LBAA glyphosate oxidoreductase variant ARG 334 (His334 to Arg) (Ochrobactrum sp. G-1, UniProt D2KI28, H334R/S2A); test: Kinetic analysis of glyphosate oxidoreductase variant ARG 334 (site-directed mutagenesis); assay type: biochemical, bacterial isolate LBAA (Pseudomonas strain LBAA)
[5] = system: glyphosate oxidoreductase; test: Glyphosate oxidoreductase activity in isolated chloroplasts from transgenic tobacco; assay type: biochemical, Nicotiana tabacum; details: substrate 50 mM; 30 minute assays; without ubiquinone; chloroplasts of plants #22844, 22854, 22886, 22887
[6] = system: glyphosate oxido-reductase from LBAA; test: Glyphosate oxidoreductase reaction with substrates; assay type: biochemical; details: oxidation to glycine and glyoxylate
Description: The enzyme glyphosate oxidoreductase catalyzes the cleavage of the C-N bond of glyphosate yielding aminomethyl phosphonate (AMPA) and glyoxylate as the reaction products. Under aerobic conditions, oxygen is utilized as a cosubstrate for the reaction. Other electron carriers such as phenazine methosulfate and ubiquinone stimulate the reaction under aerobic conditions. In the absence of oxygen, these compounds act as electron acceptors.
The enzymatic reaction can be assayed by oxygen uptake using an oxygen electrode. […] This enzyme has a stoichiometry of two moles of glyphosate oxidized per mole of oxygen consumed and produces two moles each of AMPA and glyoxylate as reaction products.
In addition to glyphosate, glyphosate oxido-reductase from LBAA oxidizes iminodiacetic acid (IDA) to glycine and glyoxylate.

[7] = Kinetic analysis of glyphosate oxidoreductase variants in crude E. coli lysates (glyoxylate-DNPH assay), substrate glyphosate; assay type: biochemical; details: 25 mM glyphosate
Description: Using this PCR approach, glyphosate oxidoreductase genes from a number of sources have been isolated. The presence of the glyphosate oxidoreductase activity was confirmed by cloning the glyphosate oxidoreductase gene from chromosomal DNA prepared from Pseudomonas sp. strain LBr (Jacob et al., 1988) and using primers homologous to the N- and C-termini of the LBAA glyphosate oxidoreductase gene and containing the following suitable restriction cloning sites: 5′-[…]-3′ (SEQ ID NO:13) and 5′-[…]-3′ (SEQ ID NO:14). Cyclotherm parameters used for these PCR reactions is as follows: • Denature at 94° C. for 1 minute; • Anneal at 60° C. for 2 minutes; • Polymerize at 72° C. for 3 minutes, • 30 cycles, no autoextension, linked to 4° C. incubation. […]
A population of bacteria was isolated from a fixed-bed immobilized cell column, which employed Mannville R-635 diatomaceous earth beads, by plating on Tryptone Soy Agar (Difco), containing cylcoheximide at 100 ug/ml, and incubating at 28° C. […] The glyphosate oxidoreductase activity was assayed and the Km for glyphosate also determined:
The mutagenesis procedure used was that of Mn++-poisoned PCR and the template was a linearized glyphosate oxidoreductase gene plasmid containing the synthetic glyphosate oxidoreductase gene (SEQ ID NO:8). […] Growth rates were determined by measuring A550 over a 96 hour period. […]

Molecule: NCP(=O)(O)O [AMPA, aminomethylphosphonate]
- phytotoxicity (most plant species [1]): much less phytotoxic than glyphosate
- phytotoxicity (most plant species [2]): much less phytotoxic than glyphosate

Molecule: O=C(O)CNCC(=O)O [IDA, iminodiacetic acid]
- Km ([3]; read-out: spp Km (IDA), pH 7.4, 30° C., crude E. coli lysate): 700 µM
- VmKm (IDA) [3]: 1.0
- app Vm (IDA) ([3]; pH 7.4, 30° C.): 0.7 U/mg
- VmKm (IDA) [4]: 1.2
- app Vm (IDA) [4]: 0.6 U/mg
- Km ([4]; read-out: spp Km (IDA)): 500 µM

Molecule: O=C(O)CNCC(=O)O [Iminodiacetic acid, iminodiacetic acid]
- Specific Activity [5]: 179 nmol/min/mg
- rate of the reaction [6]: significantly faster than with glyphosate

Molecule: O=C(O)CNCP(=O)(O)O [Glyphosate, N-phosphonomethyl-glycine]
- Specific Activity [5]: 92 nmol/min/mg

B1: v.247: glyphosate oxidoreductase variant (SEQ ID NO:18); GLY84, ARG153, ARG334 (protein)
chain: MAENHKKVGIAGAGIVGVCTALMLQRRGFKVTLIDPNPPGEGASFGNAGCFNGSSVVPMSMPGNLTSVPKWLLDPMGPLSIRFGYFPTIMPWLIRFLLAGRPNKVKEQAKALRNLIKSTVPLIKSLAEEADASHLIRHEGHLTVYRGEADFARDRGGWELRRLNGVRTQILSADALRDFDPNLSHAFTKGILIEENGHTINPQGLVTLLFRRFIANGGEFVSARVIGFETEGRALKGITTTNGVLAVDAAVVAAGAHSKSLANSLGDDIPLDTERGYHIVIANPEAAPRIPTTDASGKFIATPMEMGLRVAGTVEFAGLTAAPNWKRAHVLYTRARKLLPALAPASSEERYSKWMGFRPSIPDSLPVIGRATRTPDVIYAFGHGHLGMTGAPMTATLVSELLAGEKTSIDISPFAPNRFGIGKSKQTGPAS
- fold higher specific activity for glyphosate oxidoreductase [7]: 3-4 fold
